Data from patent publication US20110136788A1, “THERAPEUTIC AGENT FOR IRRITABLE BOWEL SYNDROME” (priority 2008, published 2011).
Where two headings read alike, the source gives them in different places.

Tests used:
[1] = test system: stress-induced bowel movement; conditions: various animals, references 6-9; cited from earlier work
[2] = test system: rat ileum peristalsis motility; assay: rat exo-vivo ileum peristalsis; conditions: isolated ileum of male SD rats, intraluminal pressure; FIG. 3
Method: Male SD rats were used under non-fasting conditions. On the day of the test, 4-5 cm of the ileum was isolated, and the oral side end and aboral side end were subjected to cannulation. 95% oxygen/5% carbon dioxide was passed therethrough and placed horizontally in a bath filled with a Krebs solution warmed to 37° C. A tube outflux on the aboral side was set at about 4 cm higher than the bath, 95% oxygen/5% carbon dioxide was passed from the tube on the oral side and perfused with a Krebs solution warmed to 37° C. at a flow rate of 10 cc/hr to induce peristalsis motility. Changes of the intraluminal pressure of the intestine due to the peristalsis motility of the ileum were recorded by a transducer from the tube on the oral side. A compound at various concentrations was added to the Krebs solution surrounding the ileum. When a compound at various concentrations was added, the Krebs solution was exchanged immediately before the addition.

[3] = test system: restraint stress-induced bowel movement, male C57BL/6 mice; assay: mouse restraint stress-induced bowel movement; assay type: in vivo; conditions: intraperitoneal; for suppression of restraint stress-induced bowel movement: 10 min before stress loading, excreted feces in 2 hr, FIG. 2
Method: Male C57BL/6 mice were used under non-fasting conditions. On the day of the test, the body weight was measured, and the mice were individually bred for 2 hr. Thereafter, the mice were placed in a mouse restraint stress cage, and the number of excreted feces in 2 hr was counted. The normal group was individually bred for 2 hr, and subsequently was bred under the same conditions, the number of excreted feces in 2 hr was counted. Each drug (same as in Example 1) was suspended in 0.5% methylcellulose, and intraperitoneally administered at a dose of 10 ml/kg 10 min before stress loading.

rat TGR5 = molecular target: T1, rat TGR5 (Rattus norvegicus, UniProt Q80T02); assay: cAMP production in CHO cell line expressing rat TGR5 (CHO-rTGR5); assay type: cell-based
T1 construct: expressed in transfected cells; host or cells: CHO cells
T1 sequence (Q80T02 1-329): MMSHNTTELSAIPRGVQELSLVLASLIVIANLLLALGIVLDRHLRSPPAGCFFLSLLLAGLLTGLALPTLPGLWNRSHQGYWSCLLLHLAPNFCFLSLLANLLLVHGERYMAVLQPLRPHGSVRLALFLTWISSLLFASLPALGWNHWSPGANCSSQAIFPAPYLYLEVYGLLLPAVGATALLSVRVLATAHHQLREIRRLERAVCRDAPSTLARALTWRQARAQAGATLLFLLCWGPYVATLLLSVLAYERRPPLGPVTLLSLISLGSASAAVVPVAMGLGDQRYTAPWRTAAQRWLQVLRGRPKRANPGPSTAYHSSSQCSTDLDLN
Method: [The procedure below names another species; the source lists this species under the same test.] (§1) CHO cell line expressing mouse TGR5 (CHO-mTGR5), which was prepared by a method known per se and using the mouse TGR5 expression vector, was suspended in an assay medium (Hanks' Balanced Salt Solution (Invitrogen) added with 0.2 mM isobutylmethylxanthine and 0.1% bovine albumin) at 1×10^7 cells/ml and stood at room temperature for 30 min. Then, a compound diluted with the assay medium to each concentration was added, and the mixture was stood still at room temperature for 30 min, and the cAMP amount was measured according to the protocol of ALPHA SCREEN cAMP ASSAY KIT (Perkin Elmer). […] The EC50 value was calculated by using GraphPad PRISM (GraphPad software) from the amount of cAMP produced by each compound.

human TGR5 = molecular target: T2, human TGR5 (Homo sapiens, UniProt Q8TDU6); assay: cAMP production in CHO cell line expressing human TGR5 (CHO-hTGR5); assay type: cell-based
T2 construct: expressed in transfected cells; host or cells: CHO cells
T2 sequence (Q8TDU6 1-330): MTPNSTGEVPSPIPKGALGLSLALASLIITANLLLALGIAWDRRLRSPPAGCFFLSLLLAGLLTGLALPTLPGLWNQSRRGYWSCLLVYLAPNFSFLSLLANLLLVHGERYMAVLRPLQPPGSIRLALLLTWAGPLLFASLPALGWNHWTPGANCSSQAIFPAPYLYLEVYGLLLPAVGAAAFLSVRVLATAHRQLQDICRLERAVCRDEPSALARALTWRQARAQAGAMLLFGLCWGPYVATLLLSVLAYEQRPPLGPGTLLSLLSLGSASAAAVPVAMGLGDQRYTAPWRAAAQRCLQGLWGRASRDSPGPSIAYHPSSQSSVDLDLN
Method: [The procedure below names another species; the source lists this species under the same test.] as §1

mouse TGR5 = molecular target: T3, mouse TGR5 (Mus musculus, UniProt Q80SS6); assay: cAMP production in CHO cell line expressing mouse TGR5 (CHO-mTGR5); assay type: cell-based
T3 construct: expressed in transfected cells; host or cells: CHO cells, expression vector pAKKO-111H
T3 sequence (Q80SS6 1-329): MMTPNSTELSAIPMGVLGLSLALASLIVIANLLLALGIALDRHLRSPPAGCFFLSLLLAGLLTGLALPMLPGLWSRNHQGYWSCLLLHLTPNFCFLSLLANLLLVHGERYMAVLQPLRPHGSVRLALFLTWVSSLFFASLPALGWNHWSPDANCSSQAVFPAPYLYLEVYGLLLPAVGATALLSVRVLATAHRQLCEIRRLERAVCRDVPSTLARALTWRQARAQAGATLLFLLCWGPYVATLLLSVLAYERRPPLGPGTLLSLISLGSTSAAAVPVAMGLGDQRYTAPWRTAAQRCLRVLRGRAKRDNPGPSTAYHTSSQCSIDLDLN
Method: as §1

[4] = CHO-rTGR5, cAMP production, read-out: EC50 value
[5] = CHO-hTGR5, cAMP production, read-out: EC50 value
[6] = Table 8, rat TGR5, read-out: EC50 (M) Rat

SMILES: Cc1[nH]cnc1CN1CCc2c(c3ccccc3n2C)C1=O [Alosetron]
- suppression of stress-induced bowel movement [1]: suppress stress-induced bowel movement

SMILES: O=C1COc2nccc(-c3ccccc3F)c2CN1Cc1cc(C(F)(F)F)cc(C(F)(F)F)c1 [Compound A, 4-[3,5-bis(trifluoromethyl)benzyl]-6-(2-fluorophenyl)-4,5-dihydropyrido[3,2-f][1,4]oxazepin-3(2H)-one]
- suppression of peristalsis motility of the ileum [2]: suppressed the peristalsis motility of the ileum in a dose-dependent manner
- suppressive action on the restraint stress-induced bowel movement ([3]; dose 30 mg/kg): statistically significant suppressive action
- suppression of restraint stress-induced bowel movement [3]: suppressed a restraint stress-induced bowel movement in a dose-dependent manner

SMILES: CC(c1cc(C(F)(F)F)cc(C(F)(F)F)c1)N1Cc2c(-c3ccccc3F)ccnc2OCC1=O (centres unmarked) [Compound B, 4-{1-[3,5-bis(trifluoromethyl)phenyl]ethyl}-6-(2-fluorophenyl)-4,5-dihydropyrido[3,2-f][1,4]oxazepin-3(2H)-one]
- EC50 (rat TGR5; [4]): 2.4e-09 M
- EC50 (human TGR5; [5]): 6.2e-10 M
- EC50 (mouse TGR5): 25 nM
- suppressive action on the restraint stress-induced bowel movement ([3]; dose 30 mg/kg): statistically significant suppressive action
- suppression of restraint stress-induced bowel movement [3]: suppressed a restraint stress-induced bowel movement in a dose-dependent manner

SMILES: CN1C(=O)C(C)(C)N(C(=O)COc2cccc3cnccc23)c2ccc(F)cc21 [Compound C, 7-fluoro-4-[(isoquinolin-5-yloxy)acetyl]-1,3,3-trimethyl-3,4-dihydroquinoxalin-2(1H)-one]
- EC50 (rat TGR5; [4]): 9.9e-09 M
- EC50 (rat TGR5; [6]): 9.9e-09 M
- EC50 (human TGR5; [5]): 2.1e-09 M
- EC50 (mouse TGR5): 25 nM
- suppressive action on the restraint stress-induced bowel movement ([3]; dose 10 mg/kg): statistically significant suppressive action
- suppressive action on the restraint stress-induced bowel movement ([3]; dose 30 mg/kg): statistically significant suppressive action
- suppression of restraint stress-induced bowel movement [3]: suppressed a restraint stress-induced bowel movement in a dose-dependent manner

SMILES: CC(c1cc(C(F)(F)F)cc(C(F)(F)F)c1)N1CCOc2nccc(-c3ccccc3)c2C1.Cl (centres unmarked) [Compound D, 4-{1-[3,5-bis(trifluoromethyl)phenyl]ethyl}-6-phenyl-2,3,4,5-tetrahydropyrido[3,2-f][1,4]oxazepine hydrochloride]
- EC50 (rat TGR5; [4]): 1.2e-07 M
- EC50 (rat TGR5; [6]): 1.2e-07 M
- suppression of peristalsis motility of the ileum [2]: suppressed the peristalsis motility of the ileum in a dose-dependent manner
- EC50 (human TGR5; [5]): 1.6e-09 M
- EC50 (mouse TGR5): 730 nM
- suppressive action on the restraint stress-induced bowel movement ([3]; dose 3 mg/kg): statistically significant suppressive action
- suppressive action on the restraint stress-induced bowel movement ([3]; dose 10 mg/kg): statistically significant suppressive action
- suppressive action on the restraint stress-induced bowel movement ([3]; dose 30 mg/kg): statistically significant suppressive action
- suppression of restraint stress-induced bowel movement [3]: suppressed a restraint stress-induced bowel movement in a dose-dependent manner

SMILES: O=C1COc2nccc(-c3ccccc3O)c2CN1Cc1cc(C(F)(F)F)cc(C(F)(F)F)c1 [Compound E, 4-[3,5-bis(trifluoromethyl)benzyl]-6-(2-hydroxyphenyl)-4,5-dihydropyrido[3,2-f][1,4]oxazepin-3(2H)-one]
- EC50 (rat TGR5; [4]): 3.2e-07 M
- suppression of peristalsis motility of the ileum [2]: suppressed the peristalsis motility of the ileum in a dose-dependent manner
- EC50 (human TGR5; [5]): 2.4e-07 M
- EC50 (human TGR5; Table 8, human TGR5, read-out: EC50 (M) Human): 2.4e-07 M
